Patent US11433086B2, “Combination of T-cell checkpoint inhibitors with inhibitors of e-selectin or CXCR4, or with heterobifunctional inhibitors of both E-selectin and CXCR4” (GlycoMimetics, Inc., priority 2016, dated 2022)

System: T-Cells (CD4+ and CD8+), Tregs, MDSCs and checkpoint markers in tumors and spleens
Assay: Flow cytometry immune profile of tumors and spleens, Day 15
Type: in vivo, Balb/c mice
Method: The anti-cancer activity of an anti-mPD-L1 antibody (10F.9G2) and GMI-1359 was compared to a rat isotype control antibody against indeterminate subcutaneous CT26.WT carcinoma xenografts in female Balb/c mice. An immune profile of each mouse was determined by sampling tumors and spleens, staining for several markers of an active immune response, and detecting the levels of these markers via flow cytometry. Flow cytometry markers included: T-Cells (CD4^+ and CD8^+), Regulatory T-Cells (Tregs). (CD4^+/CD25^+/FoxP3^+), MDSCs (CD11b^+/Gr1^+) and co-expression of CCR7^+ and CD62^+ added to the existing CD4/CD8 panel.
At 24 hours after the final dose of GMI-1359 (Day 15), all mice from Groups 7-12 were euthanized for tumor and spleen collection. All mice were euthanized via over exposure to carbon dioxide. The tumors and spleens were excised and placed in a labeled 5 mL sampling tube filled with cold PBS and placed on ice. The tumors and spleens were provided to the Molecular Imaging's in vitro group for flow cytometric analysis.
For tumor dissociation, the tumor was weighed and <1 g tissue was processed according to Miltenyi Tumor Dissociation Protocol 2.2.1, Dissociation of soft tumors, before proceeding to the red blood cell lysis.
For spleen dissociation, the plunger on a 3 mL syringe was used to crush the spleen in 10 mL DPBS until organ was well broken up and the DPBS became cloudy with cells. The cell suspension was then filtered with a 70 μm strainer on a 50 mL tube and washed with 20 mL DPBS. The suspension was then centrifuged for 7 minutes at 300 rcf and the supernatant was discarded before proceeding the red blood cell lysis.
For the red blood cell lysis, each of the tumor and spleen samples were re-suspended in 3 mL ACK Lysis Buffer and then incubated for 5 minutes at room temperature. The suspension was diluted by adding 10 mL DPBS, and then the cells were collected via centrifugation for 5 minutes at 300 rcf. The cells were again re-suspended in 30 mL DPBS and counted. The suspension was centrifuged again, and the supernatant was discarded before proceeding to the Fc block.
For the Fc block, each of the tumor and spleen samples were re-suspended at 1E+06 cells per 100 μL in Flow Cytometry Staining buffer with 1 μL Fc block per 1E+06 cells. The suspensions were incubated for 5 minutes at room temperature, then centrifuged for 5 minutes at 300 rcf, and the supernatant was removed before proceeding to surface staining.
For the surface staining, the following antibody dilutions were prepared, 50 μL per reaction in Flow Cytometry Staining Buffer (except FoxP3):
For surface staining, the tumor and spleen cells were re-suspended at 1E+06 cells per 50 μL. Each of the 50 μL cell suspensions containing 1E+06 cells was added to 50 μL antibodies diluted in staining buffer in round-bottom 96-well plate. The plate was incubated for 30 minutes in the dark at room temperature on the orbital shaker, setting 2.5. The samples were diluted by adding 200 μL Flow Cytometry Staining Buffer and then centrifuged for 5 minutes at 300 rcf. The supernatant was aspirated and the cells were washed wash by re-suspending in 250 μL Flow Cytometry Staining Buffer and spinning. If staining for intracellular markers, after washing, the sample was then prepared according to the intracellular staining procedure described below. The samples were then re-suspended in 250 μL Flow Cytometry Staining Buffer and were ready for Flow Cytometry Analysis.
When staining for intracellular markers, following the wash step, the cells were re-suspended in 200 μL FoxP3 Fixation/Permeabilization working solution and incubated for 30 minutes in the dark at room temperature. The samples were then centrifuged at 400 rcf for 5 minutes at room temperature, then the supernatant was discarded. 200 μL 1× permeabilization buffer was added to each well. The samples were centrifuged at 400 rcf for 5 minutes at room temperature, then the supernatant was discarded. […]

For `CCC1CC(C(=O)NCCNCc2ccc(CN3CCCNCCNCCCNCC3)c(Br)c2)CC(OC2OC(CO)C(O)C(O[C@@H](CC3CCCCC3)C(=O)O)C2NC(C)=O)C1OC1OC(C)C(O)C(O)C1O` (stereo partly drawn) [GMI-1359], the “average percentage of CCR7^+/CD62L^+ cells within the CD8^+ T-cell population in spleens” value (spleens, Day 15, Groups 8-12) was 1.00%, the “average percentage of CD4^+ T-cells expressing CCR7 but not CD62L in spleens” value (spleens, Day 15, Groups 8-12) was 33.36% and the “average percentage of CD4^+ T-cells expressing CD62L but not CCR7 in spleens” value (spleens, Day 15, Groups 8-12) was 5.42%. For the same compound, the “average percentage of CD4^+ T-cells expressing both CCR7 and CD62L in spleens” value (spleens, Day 15, Groups 8-12) was 2.05%, the “average percentage of CD4^+ cells in spleens” value (spleens, Day 15, Groups 8-12) was 13.43% and the “average percentage of CD8^+ T-cells expressing CCR7 but not CD62L in spleens” value (spleens, Day 15, Groups 8-12) was 27.95%. The “average percentage of CD8^+ T-cells expressing CD62L but not CCR7 in spleens” value (spleens, Day 15, Groups 8-12) was 2.94%, the “average percentage of CD8^+ cells in spleens” value (spleens, Day 15, Groups 8-12) was 8.77% and the “average percentage of MDSCs in spleens” value (spleens, Day 15, Groups 8-12) was 3.70%. The “average percentage of Tregs in spleens” value (spleens, Day 15, Groups 8-12) was 10.00%, the “average percentage of cells expressing CTLA-4 in spleens” value (spleens, Day 15, Groups 8-12) was 12.31% and the “average percentage of cells expressing PD-1 in spleens” value (spleens, Day 15, Groups 8-12) was 5.53%. For the same compound, the “average percentage of cells expressing PD-L1 in spleens” value (spleens, Day 15, Groups 8-12) was 81.50%, the “percentage of CD4^+/CCR7^+/CD62L^+ cells in spleens, change” value (spleens, Day 15, compared to vehicle, GMI-1359 or isotype control antibody, respectively) was “did not” and the “average percentage of (CD4^+) cells expressing CD62L but not CCR7 in tumors” value (tumors, Day 15, Groups 8-12) was 31.43%. The “average percentage of CCR7^+/CD62L^+ cells within the CD8^+ T-cell population in tumors” value (tumors, Day 15, Groups 8-12) was 25.84%, the “average percentage of CD4^+ T-cells expressing both CCR7 and CD62L in tumors” value (tumors, Day 15, Groups 8-12) was 25.32% and the “average percentage of CD8^+ cells in tumors” value (tumors, Day 15, Groups 8-12) was 15.61%. The “average percentage of cells expressing CTLA-4 in tumors” value (tumors, Day 15, Groups 8-12) was 42.80%, the “average percentage of cells expressing PD-1 in tumors” value (tumors, Day 15, Groups 8-12) was 23.39% and the “average percentage of cells expressing PD-L1 in tumors” value (tumors, Day 15, Groups 8-12) was 34.44%. For the same compound, the “average percentage of myeloid-derived suppressor cells (MDSCs) in tumors” value (tumors, Day 15, Groups 8-12) was 2.66%, the “average percentage of regulatory T-cells (Tregs) in tumors” value (tumors, Day 15, Groups 8-12) was 2.93% and the “detection of CD4^+/CCR7^+/CD62L^− and CD8^+/CCR7^+/CD62L^− populations in tumor samples” value (tumors, Day 15, Groups 8-12) was “Neither CD4^+/CCR7^+/CD62L^− nor CD8^+/CCR7^+/CD62L^− populations were detected”. The “percentage of CD8^+ T-cells expressing CD62L but not CCR7 in tumors” value (tumors, Day 15, Groups 8-12) was 25.65%, the “average percentage of CD4^+ cells in tumors” value (tumors, Day 15, Groups 8-12 (GMI-1359 40 mg/kg IP Days 3-14, antibody 10 mg/kg IP Days 3,6,10,13)) was 7.02% and the “percentage of Treg among tumor infiltrating cells (summary comparison)” value (tumors, Day 15, groups 8, 10, 12, saline group 7 3.3%) was 2.9%.
